Data on three compounds can be found in patent US5505922A, “Anesthetic pharmaceutical combination” (University of Maryland at Baltimore, priority 1995, dated 1996).

The structures appear in SMILES notation. Where two headings read alike, the source gives them in different places.

The conditions of data set [1]: acutely, 250 mg per ml of lithium; cited from earlier work.
Data set [2] deals with desheathed ferret vagus nerves (C fibers). Briefly: In vitro recording of electrically stimulated compound action potentials from desheathed ferret vagus nerves (depression of action potential). It is filed as cell-based. Particulars: for IC50: read-out: ED50 (the source's name); for shift in the dose/response curve: lithium Lockes versus sodium Lockes, FIGS. 1 to 4; for in vitro ED50 reduction relative to control values: lithium-containing versus sodium Lockes vehicle. The protocol: To test if replacement of lithium ions for sodium ions reduced the required local anesthetic dose, an in vitro experiment was performed, wherein the electrically stimulated compound action potentials were recorded from desheathed ferret vagus nerves, which are an enriched source of C fibers.
The ferret vagus nerves were removed bilaterally and were desheathed under a Zeiss dissecting microscope with a magnification of 2.5X. A single desheathed nerve was then placed in a chamber interlaced with electrodes for stimulating and recording action potentials. The central section of the nerve passes through the central well containing either buffer or drug in buffer.
The stimulation voltage was adjusted to provide maximal action potential. The stimulus duration was 0.5 milliseconds. Stimulation and recording parameters were programmed, and stimuli were presented at 2 second intervals. Five successive action potentials were averaged and stored as an estimate of action potential activity each minute. The intervening […] action potential were discarded.
Control nerves were bathed in a 100% sodium Locke's solution, synthesized in the manner set forth in Synthesis Example 1 above. Experimental nerves were bathed in lithium Locke's solution, comprising 35 mol Eq. % lithium, 65 mol Eq. % sodium Locke's solution, synthesized in the manner set forth in Synthesis Example 2 above.
The electrical stimuli were applied to one end of the nerve, while on the other end, the resulting action potential propagation was measured using an oscilloscope and the recording computer. Varying doses of mepivacaine were administered to the nerves so that dose/response curves could be constructed under both ionic conditions.
Following a period of equilibration in a buffer where control recordings are made, the well was emptied and a molar concentration of a test anesthetic was added. Various molar concentrations of mepivacaine, an amide type local anesthetic (Sterling-Winthrop Research Institute, Rensselear, N.Y.), and procaine, an ester type local anesthetic (Sigma Chemical Co., St. Louis, Mo.) were tested in both sodium and lithium Locke's buffer vehicles, as described above.
Compound action potentials having two distinct peaks, labeled as A and C peaks, are observed and were recorded at 2 second intervals. Five consecutive action potentials were recorded for each one minute time period over 30 minutes. At 30 minutes, the anesthetic was removed and the chamber was perfused with buffer. Recording was continued during this 30 minute period. The averaged data, collected every 2 minutes, was then analyzed to determine the slope of the action potential, the height of the action potential, the area under the curve of the action potential and the conduction velocity. This was done for both the A and C peaks.
The data were then plotted as percent of control versus time. Other molar concentrations were administered from the dose where there was no effect on the A peak, and to a dose where the action potential was depressed to zero.
Inspection of the data allowed recording of the maximal observed effect for each of the concentrations studied. This observed maximum (or an asymptotic value derived from an appropriate equation) was used to generate log-probit linear regressions of the dose versus the effect. This is accomplished by conversion of the percent effect to the corresponding probit value, conversion of the dose to its log10 and fitting a first degree polynomial to the resultant data by the method of least squares.
The 95% confidence band was calculated and plotted for the data. From the equations of the best fit line and the confidence bands, doses estimated to produce 50, 90 and 95% depression of the four parameters were calculated for both the A and C peaks of the action potentials.
Table 1 was prepared using the results of each of the concentrations onsets (T 85%). […]

The test system of data set [3] is tooth pulps of the central incisors of rabbits. Kind of data set: In vivo electrically stimulated tooth pulp pain model (rabbit tooth pulp assay). Here is the method: To confirm the results of the in vitro experiments in vivo, an electrically stimulated tooth pulp pain model was used. The tooth pulps of the central incisors of rabbits were exposed using a high speed burr and dental drill.
Electrodes were inserted into the pulp chambers and the voltage required to elicit a lick/chew response was measured. The percentage analgesia was calculated from the following equation:
MPE=((TV-CV)/(10 V-CV))×100
wherein TV is the voltage after treatment; CV is the control voltage, and 10 V are the maximum volts applied.
The percent analgesia was recorded 0, 5, 10, 15, 30, 60, 120 and 180 minutes after injection.

Setting [4] is: control (sodium Lockes) buffer vehicle.
The mark [5] stands for this setting: in the lithium-containing buffer vehicle.

On to `[Li]` [lithium], for which the acute tolerability result in data set [1] was “well tolerated”.
On to `Cc1cccc(C)c1NC(=O)C1CCCCN1C` (stereo not shown) [mepivacaine], for which the values for the IC50 in data set [2] (setting [4]) and in data set [2] (setting [5]) were 420 µM and 270 µM, respectively. Further, the “shift in the dose/response curve” value in data set [2] is “not parallel and demonstrated that the effect of lithium was most pronounced at lower concentrations”. In data set [2], the “in vitro ED50 reduction relative to control values” is “reduced to half their control values”. Moreover, the “shift in the dose/response curves” value in data set [3] (lithium Lockes versus sodium Lockes, FIGS. 5 and 6) was “not parallel and demonstrated that the effect of lithium was most pronounced at lower concentrations”. In data set [3] (lithium Lockes versus standard sodium Lockes vehicle), the “in vivo ED50 reduction relative to standard sodium Lockes vehicle” value was “reduced to one third of its value”. Moreover, the results for the ED50 in data set [3] (lithium present in the buffer vehicle) and in data set [3] (without lithium (sodium Lockes)) were 0.69% and 1.93%, respectively.
Take `CCN(CC)CCOC(=O)c1ccc(N)cc1` [procaine]: the IC50 in data set [2] (setting [4]) was 540 µM. In addition, in data set [2] (setting [5]), the IC50 was 190 µM. In addition, in data set [2], the “shift in the dose/response curve” value is “not parallel and demonstrated that the effect of lithium was most pronounced at lower concentrations”; the “in vitro ED50 reduction relative to control values” is recorded as “reduced to half their control values”.
